Calls of active or inactive are those of the source.
Legend:
[1] = loss of viability in HepG2 cells – cell-based, CellTiter-Glo, cherry-picked, cytotoxicity control for Shn3 inhibitor project, dose response (AID 624134); type: functional
[2] = non-specific 3'UTR reporter inhibition in Clone20-Shn3RL – cell-based, Renilla luciferase, cherry-picked, counter-screen for Shn3 inhibitor project, dose response (AID 624133); type: functional
[3] = reduction of Shn3 3'UTR-driven luciferase in osteoblasts – cell-based, Clone20 osteoblasts, firefly luciferase, cherry-picked, dose response (AID 624132); type: functional;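 also: firefly luciferase luminescence from reporter carrying the Shn3 3'UTR in osteoblasts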
[4] = biological target: T1, Polyadenylate-binding protein 1 (Homo sapiens, UniProt P11940); assay: MLLE domain peptide-binding blockers, IC50 – biochemical, fluorescence polarization, FITC-PAM2 peptide, dose response (AID 602259); type: functional; conditions: read-out: IC50_Mean
T1 sequence (P11940 whole entry, the tested form may be a part): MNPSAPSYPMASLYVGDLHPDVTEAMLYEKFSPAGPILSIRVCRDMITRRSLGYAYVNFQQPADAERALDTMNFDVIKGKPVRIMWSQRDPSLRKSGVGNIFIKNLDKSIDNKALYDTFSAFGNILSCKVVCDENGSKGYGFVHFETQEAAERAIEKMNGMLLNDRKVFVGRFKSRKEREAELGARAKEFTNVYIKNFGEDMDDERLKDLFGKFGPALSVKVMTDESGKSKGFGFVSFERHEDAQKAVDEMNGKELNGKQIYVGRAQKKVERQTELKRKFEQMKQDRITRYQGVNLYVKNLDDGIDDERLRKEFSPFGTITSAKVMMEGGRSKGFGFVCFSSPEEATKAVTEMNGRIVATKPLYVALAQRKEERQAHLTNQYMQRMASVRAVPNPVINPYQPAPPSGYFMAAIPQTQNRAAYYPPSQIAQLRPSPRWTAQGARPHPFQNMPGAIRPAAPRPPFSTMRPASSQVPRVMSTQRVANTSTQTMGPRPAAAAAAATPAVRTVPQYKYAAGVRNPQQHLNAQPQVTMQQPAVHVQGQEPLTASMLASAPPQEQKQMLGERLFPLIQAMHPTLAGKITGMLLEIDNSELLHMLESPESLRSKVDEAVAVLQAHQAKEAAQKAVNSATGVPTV

[5] = biological target: T1, Polyadenylate-binding protein 1; assay: MLLE binding blockers, Cy5 peptide tracer – biochemical, fluorescence polarization, Cy5-PAM2 peptide, secondary, miRNA deadenylation inhibitor project, dose response (AID 602260); type: functional; conditions: read-out: IC50_Mean
INS1 = assay: INS-1E survival protection against cytokine death – cell-based, luminescence, retest, dose response (AID 449756); type: functional; conditions: Rattus norvegicus;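 also: cell death triggered by IL-1 beta plus TNF-alpha plus IFN-gamma mixture; protective hits raise ATP signal compared with cytokine alone wells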
Leucine aminopeptidase = biological target: T2, Leucine aminopeptidase (Plasmodium falciparum 3D7, UniProt Q8IL11); assay: P. falciparum M17LAP inhibitors, primary screen, biochemical, fluorogenic H-Leu-NHMec substrate, 1536-well (AID 1619); type: functional
T2 sequence (Q8IL11 whole entry): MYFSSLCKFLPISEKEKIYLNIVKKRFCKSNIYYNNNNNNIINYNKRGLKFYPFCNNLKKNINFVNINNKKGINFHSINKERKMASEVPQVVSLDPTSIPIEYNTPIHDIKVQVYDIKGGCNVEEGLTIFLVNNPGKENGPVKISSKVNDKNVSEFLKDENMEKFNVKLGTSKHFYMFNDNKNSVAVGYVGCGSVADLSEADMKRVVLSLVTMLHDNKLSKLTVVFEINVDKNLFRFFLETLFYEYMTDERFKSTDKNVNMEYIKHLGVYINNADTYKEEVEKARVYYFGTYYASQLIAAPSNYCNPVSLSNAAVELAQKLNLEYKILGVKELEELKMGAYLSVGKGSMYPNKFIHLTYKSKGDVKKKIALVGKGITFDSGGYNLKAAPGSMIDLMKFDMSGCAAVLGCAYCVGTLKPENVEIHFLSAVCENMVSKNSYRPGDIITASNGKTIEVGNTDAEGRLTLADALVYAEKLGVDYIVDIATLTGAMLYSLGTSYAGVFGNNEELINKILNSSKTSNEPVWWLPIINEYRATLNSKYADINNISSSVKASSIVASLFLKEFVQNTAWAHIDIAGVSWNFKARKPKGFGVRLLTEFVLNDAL

Genome polyprotein = Genome polyprotein (dengue virus type 2, UniProt P29990); assay: flavivirus cap methylation enzyme inhibition – biochemical, confirmation dose response, primary screen (AID 588689); type: functional
Genome polyprotein, sequence (P29990 2492-3391 limits assumed): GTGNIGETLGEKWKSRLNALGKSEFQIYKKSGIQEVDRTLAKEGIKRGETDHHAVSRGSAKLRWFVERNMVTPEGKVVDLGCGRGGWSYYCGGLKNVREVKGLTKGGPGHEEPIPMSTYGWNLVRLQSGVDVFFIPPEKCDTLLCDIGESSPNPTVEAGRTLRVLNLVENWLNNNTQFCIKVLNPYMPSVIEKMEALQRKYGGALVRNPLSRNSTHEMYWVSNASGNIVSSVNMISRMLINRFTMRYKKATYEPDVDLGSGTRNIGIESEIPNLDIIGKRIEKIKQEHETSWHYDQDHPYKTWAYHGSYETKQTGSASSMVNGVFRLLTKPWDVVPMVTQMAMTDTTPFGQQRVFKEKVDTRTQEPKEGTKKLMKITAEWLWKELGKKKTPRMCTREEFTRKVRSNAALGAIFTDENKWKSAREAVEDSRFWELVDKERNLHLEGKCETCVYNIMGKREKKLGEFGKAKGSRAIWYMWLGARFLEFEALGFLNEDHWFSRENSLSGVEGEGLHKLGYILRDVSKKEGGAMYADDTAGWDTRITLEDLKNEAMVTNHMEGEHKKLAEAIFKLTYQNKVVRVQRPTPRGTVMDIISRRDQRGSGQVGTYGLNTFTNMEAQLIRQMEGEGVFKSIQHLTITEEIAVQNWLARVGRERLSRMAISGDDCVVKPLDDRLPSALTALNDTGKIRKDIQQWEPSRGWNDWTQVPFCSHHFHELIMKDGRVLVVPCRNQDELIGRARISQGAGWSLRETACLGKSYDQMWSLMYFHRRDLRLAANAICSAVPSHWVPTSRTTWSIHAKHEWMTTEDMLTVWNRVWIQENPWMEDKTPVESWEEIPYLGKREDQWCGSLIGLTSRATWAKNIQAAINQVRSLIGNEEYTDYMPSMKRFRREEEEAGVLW

[6] = luciferase reporter signal suppression in cells – H4 neuroglioma cells, luminescence, dose response (AID 1990); type: functional, cell-based
[7] = alpha-synuclein stem-loop luciferase translation blockers – H4 neuroglioma cells, luminescence, confirmation (AID 1988); type: functional, cell-based
[8] = Luminescence Cell-Based Dose Response HTS to Identify Inhibitors of 5'UTR Stem-Loop Driven Prion Protein mRNA Translation in H4 Neuroglioblastoma Cells. [Related pubchem assays: 1827 (Project Summary), 1813 (Primary HTS)]; type: functional
Escherichia coli = assay: microbe, parasite or virus in culture
[9] = biological target: T3, Replicative DNA helicase DnaB (Mycobacterium tuberculosis, UniProt P9WMR3); assay: DnaB intein splicing inhibitors, dose response, biochemical, cell-free fluorescence (AID 449749); type: functional
T3 sequence (P9WMR3 whole entry): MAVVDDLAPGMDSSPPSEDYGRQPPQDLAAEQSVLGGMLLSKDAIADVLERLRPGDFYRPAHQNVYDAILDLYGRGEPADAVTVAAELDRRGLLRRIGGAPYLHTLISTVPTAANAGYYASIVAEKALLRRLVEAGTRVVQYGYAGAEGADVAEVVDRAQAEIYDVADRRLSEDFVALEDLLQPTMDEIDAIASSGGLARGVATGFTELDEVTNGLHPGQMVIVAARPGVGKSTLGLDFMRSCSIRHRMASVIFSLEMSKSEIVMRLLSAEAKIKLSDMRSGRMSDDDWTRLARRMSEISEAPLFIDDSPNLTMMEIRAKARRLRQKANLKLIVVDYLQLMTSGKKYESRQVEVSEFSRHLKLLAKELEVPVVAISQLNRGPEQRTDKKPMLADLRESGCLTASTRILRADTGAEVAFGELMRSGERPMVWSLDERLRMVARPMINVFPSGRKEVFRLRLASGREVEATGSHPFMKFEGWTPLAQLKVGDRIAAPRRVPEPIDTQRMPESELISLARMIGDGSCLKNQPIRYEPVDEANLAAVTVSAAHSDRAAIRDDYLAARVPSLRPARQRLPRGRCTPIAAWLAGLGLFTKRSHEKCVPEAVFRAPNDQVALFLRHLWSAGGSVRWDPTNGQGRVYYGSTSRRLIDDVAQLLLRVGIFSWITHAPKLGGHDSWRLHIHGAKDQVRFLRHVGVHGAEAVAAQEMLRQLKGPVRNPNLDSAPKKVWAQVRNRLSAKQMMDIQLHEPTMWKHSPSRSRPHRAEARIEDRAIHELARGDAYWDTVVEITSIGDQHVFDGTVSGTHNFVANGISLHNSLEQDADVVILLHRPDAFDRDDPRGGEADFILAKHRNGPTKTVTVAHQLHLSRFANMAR

[10] = biological target: T4, Heat shock factor protein 1 (Mus musculus, UniProt P38532); assay: enhancement of HSF1-driven luciferase signal – cell-based, NIH3T3, luminescence, dose retest, confirmation (AID 435004); type: functional;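 also: stress induced by proteasome inhibitor MG132 added 30 min after compound; luciferase reporter driven by HSF1 response element in NIH3T3 cells; actives raise luminescence as potentiators of the MG132 stress response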
T4 sequence (P38532 whole entry): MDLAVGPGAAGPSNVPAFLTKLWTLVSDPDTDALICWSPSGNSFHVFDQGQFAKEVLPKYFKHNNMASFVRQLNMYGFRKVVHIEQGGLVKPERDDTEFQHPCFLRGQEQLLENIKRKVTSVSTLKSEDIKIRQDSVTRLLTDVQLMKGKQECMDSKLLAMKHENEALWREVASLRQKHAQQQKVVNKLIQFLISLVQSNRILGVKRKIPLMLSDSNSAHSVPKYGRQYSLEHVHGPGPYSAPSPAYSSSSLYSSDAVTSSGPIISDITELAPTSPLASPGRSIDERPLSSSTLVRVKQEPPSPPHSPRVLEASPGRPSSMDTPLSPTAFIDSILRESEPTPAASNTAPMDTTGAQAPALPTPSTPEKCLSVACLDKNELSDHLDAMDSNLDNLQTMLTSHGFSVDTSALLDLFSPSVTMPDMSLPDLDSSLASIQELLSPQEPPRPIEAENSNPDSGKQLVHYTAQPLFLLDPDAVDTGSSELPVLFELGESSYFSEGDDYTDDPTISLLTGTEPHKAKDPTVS

[11] = biological target: G-protein coupled receptor 55 (Homo sapiens, UniProt Q9Y2T6); assay: selective activators of receptor GPR55 – imaging, U2OS cells, beta-arrestin-GFP redistribution, primary screen (AID 1961); type: functional
G-protein coupled receptor 55, sequence (Q9Y2T6 whole entry): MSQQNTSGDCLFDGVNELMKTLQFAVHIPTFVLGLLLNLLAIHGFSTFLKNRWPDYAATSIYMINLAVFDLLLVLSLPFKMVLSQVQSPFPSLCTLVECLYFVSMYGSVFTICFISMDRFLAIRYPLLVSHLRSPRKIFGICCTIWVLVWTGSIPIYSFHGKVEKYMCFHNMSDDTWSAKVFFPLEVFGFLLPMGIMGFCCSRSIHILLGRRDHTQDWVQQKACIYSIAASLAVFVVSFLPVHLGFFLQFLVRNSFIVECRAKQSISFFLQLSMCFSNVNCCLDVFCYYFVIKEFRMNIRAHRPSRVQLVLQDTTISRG

Protein RecA = biological target: T5, Protein RecA (Mycobacterium tuberculosis, UniProt P9WHJ3); assay: Fluorescence Cell-Free Homogeneous Dose Retest to Identify Inhibitors of RecA-Intein Splicing Activity. [Related pubchem assays (depositor defined):AID2097, AID2223, AID489010, AID492950]; type: functional
T5 sequence (P9WHJ3 whole entry): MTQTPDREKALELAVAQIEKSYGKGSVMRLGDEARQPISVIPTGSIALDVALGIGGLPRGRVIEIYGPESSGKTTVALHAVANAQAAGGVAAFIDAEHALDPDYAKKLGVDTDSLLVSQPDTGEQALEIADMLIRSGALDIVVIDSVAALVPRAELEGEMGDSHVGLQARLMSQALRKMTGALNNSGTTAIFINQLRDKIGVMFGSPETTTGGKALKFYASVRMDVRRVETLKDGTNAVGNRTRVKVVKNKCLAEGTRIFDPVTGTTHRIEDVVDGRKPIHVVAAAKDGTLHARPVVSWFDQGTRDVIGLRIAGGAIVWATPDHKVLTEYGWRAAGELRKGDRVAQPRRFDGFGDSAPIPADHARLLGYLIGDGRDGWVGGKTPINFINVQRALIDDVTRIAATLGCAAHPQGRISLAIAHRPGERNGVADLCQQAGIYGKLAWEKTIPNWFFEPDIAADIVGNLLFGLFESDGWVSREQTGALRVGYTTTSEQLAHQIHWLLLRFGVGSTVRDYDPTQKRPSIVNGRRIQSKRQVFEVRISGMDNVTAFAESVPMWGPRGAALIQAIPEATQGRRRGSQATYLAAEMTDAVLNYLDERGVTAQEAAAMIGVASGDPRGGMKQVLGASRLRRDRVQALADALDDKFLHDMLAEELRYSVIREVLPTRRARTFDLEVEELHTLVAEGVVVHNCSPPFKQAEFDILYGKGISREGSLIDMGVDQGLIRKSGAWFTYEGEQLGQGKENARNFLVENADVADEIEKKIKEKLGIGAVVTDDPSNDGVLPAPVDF

Cytochrome P450 2C19 = Cytochrome P450 2C19 (Homo sapiens, UniProt P33261); assay: Cytochrome panel assay with activity outcomes. Panel member name: p450-cyp2c19 Compounds with AC50 equal or less than 10 uM are considered active; type: functional; conditions: read-out: AC50
Cytochrome P450 2C19, sequence (P33261 whole entry): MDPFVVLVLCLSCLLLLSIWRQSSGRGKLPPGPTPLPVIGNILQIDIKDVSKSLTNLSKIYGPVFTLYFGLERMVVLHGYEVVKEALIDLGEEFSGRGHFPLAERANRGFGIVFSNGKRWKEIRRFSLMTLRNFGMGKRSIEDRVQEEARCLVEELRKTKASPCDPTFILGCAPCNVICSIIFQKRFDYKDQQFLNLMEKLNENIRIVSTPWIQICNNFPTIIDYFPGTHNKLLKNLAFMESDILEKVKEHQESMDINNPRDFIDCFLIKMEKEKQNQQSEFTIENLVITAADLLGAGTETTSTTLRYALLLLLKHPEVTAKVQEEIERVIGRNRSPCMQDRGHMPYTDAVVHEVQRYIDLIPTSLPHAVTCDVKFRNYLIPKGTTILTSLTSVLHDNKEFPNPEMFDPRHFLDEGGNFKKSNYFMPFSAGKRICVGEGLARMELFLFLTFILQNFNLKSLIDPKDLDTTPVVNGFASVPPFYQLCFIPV

[12] = biological target: DNA (cytosine-5)-methyltransferase 1 (Homo sapiens, UniProt P26358); assay: inhibition of DNA methylation by DNMT1 – biochemical, fluorescent molecular beacon, confirmation (AID 602386); type: functional
DNA (cytosine-5)-methyltransferase 1, sequence (P26358 whole entry): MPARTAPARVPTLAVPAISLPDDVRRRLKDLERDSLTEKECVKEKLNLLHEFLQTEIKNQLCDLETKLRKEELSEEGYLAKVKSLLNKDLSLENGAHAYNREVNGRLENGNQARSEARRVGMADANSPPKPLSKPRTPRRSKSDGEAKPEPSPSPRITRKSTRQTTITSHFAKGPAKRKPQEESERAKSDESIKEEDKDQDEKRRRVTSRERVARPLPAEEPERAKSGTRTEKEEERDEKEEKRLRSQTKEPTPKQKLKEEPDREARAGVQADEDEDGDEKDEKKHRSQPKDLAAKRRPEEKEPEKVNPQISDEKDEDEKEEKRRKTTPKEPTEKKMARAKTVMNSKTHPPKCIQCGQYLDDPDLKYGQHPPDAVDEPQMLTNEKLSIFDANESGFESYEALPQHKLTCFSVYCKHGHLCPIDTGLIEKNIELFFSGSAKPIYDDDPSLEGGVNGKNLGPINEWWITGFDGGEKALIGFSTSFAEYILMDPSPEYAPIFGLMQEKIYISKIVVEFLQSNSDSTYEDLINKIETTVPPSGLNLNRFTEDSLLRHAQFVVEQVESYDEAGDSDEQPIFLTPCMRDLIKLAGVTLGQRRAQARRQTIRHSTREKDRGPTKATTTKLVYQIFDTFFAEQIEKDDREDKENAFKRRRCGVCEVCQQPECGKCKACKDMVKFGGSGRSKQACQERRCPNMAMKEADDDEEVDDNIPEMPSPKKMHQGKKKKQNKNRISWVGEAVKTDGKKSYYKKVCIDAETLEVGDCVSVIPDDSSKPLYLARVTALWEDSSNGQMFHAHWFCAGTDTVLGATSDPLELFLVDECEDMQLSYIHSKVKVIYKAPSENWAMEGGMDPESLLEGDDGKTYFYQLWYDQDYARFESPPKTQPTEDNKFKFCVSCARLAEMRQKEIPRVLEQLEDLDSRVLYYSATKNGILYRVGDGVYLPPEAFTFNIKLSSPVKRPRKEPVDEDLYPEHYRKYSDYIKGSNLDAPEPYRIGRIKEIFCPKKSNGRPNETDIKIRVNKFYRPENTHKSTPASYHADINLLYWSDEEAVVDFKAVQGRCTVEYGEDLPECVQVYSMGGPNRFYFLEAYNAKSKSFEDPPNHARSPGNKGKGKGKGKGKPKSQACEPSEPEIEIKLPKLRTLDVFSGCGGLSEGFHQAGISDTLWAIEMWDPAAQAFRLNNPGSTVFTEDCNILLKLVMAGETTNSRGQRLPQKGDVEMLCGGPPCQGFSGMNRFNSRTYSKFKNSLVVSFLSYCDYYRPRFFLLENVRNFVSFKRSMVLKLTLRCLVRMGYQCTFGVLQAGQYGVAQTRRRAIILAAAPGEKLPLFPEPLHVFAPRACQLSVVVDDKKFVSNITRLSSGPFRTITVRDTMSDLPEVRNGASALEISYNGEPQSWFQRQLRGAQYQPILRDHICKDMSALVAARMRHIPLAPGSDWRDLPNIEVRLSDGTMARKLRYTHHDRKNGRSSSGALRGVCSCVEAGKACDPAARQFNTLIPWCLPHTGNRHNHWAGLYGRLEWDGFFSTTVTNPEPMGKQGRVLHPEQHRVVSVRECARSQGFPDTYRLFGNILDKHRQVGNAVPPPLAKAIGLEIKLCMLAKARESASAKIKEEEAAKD

O=C(Nc1cccc(Cl)c1Cl)C1CC(=O)N(c2ccc(Br)cc2)C1 (stereo not drawn)
AC50 [1]: 38.4 µM (active) | AC50 [2]: 9.56 µM (active) | AC50 [3]: 8.23 µM (active)

COc1ccc(NC(=O)c2ccco2)cn1
IC50 [4]: 34.1 µM (inactive) | IC50 [5]: > 66 µM (inactive)

Cc1ccc(-n2ncc3c2CCCC3NC(=O)c2ocnc2C)cc1C (stereo not drawn)
AC50 [1]: 0.594 µM (active) | AC50 [2]: 3.35 µM (active) | AC50 (INS1): 3.69 µM (active) | AC50 [3]: 1.29 µM (active)

CCCCCCSc1nc(O)c(C2OC(=O)c3c2ccc(OC)c3OC)c(=O)n1-c1ccccc1 (stereo not drawn)
IC50 (Leucine aminopeptidase): 4.82 µM (active) | IC50 (Genome polyprotein): 30.2 µM (active)

CC(C)(C)NC(=O)CSc1nc2ccc(NC(=O)CSc3nnnn3Cc3ccccc3)cc2s1
AC50 [1]: 53 µM (active) | AC50 [2]: 6.81 µM (active) | AC50 [3]: 3.26 µM (active)

CCOc1cc(C(=O)CSc2nnc(CNc3ccc(Cl)cc3)o2)ccc1NC(=O)CC
AC50 [1]: 29.5 µM (active) | AC50 [2]: 36.5 µM (active) | EC50 [6]: > 120 µM (not active) | EC50 [7]: 7.28 µM (active) | EC50 [8]: 23 µM (active) | AC50 [3]: 7.73 µM (active)

c1ccc(-n2c(SCC3CCCCO3)nnc2-c2cccs2)cc1 (stereo not drawn)
AC50 (Escherichia coli): 24.4 µM (active)

COc1ccc2nc3cc(Cl)ccc3c(Nc3cc(C(C)C)c(O)cc3C)c2c1
AC50 [9]: > 380 µM (inactive) | EC50 [10]: 154 µM (active) | EC50 [11]: 1 µM (active) | EC50 (Protein RecA): 0.318 µM (active)

CCCCN(CCCC)C(=O)c1cn(CC)c2cc(N3CCN(C)CC3)c(F)cc2c1=O
AC50 (Escherichia coli): 1.67 µM (active)

O=C(O)CSC1CC(=O)N(c2ccc(Cl)c(Cl)c2)C1=O (stereo not drawn)
IC50 [4]: > 66 µM (inactive) | IC50 [5]: > 66 µM (inactive)

CCCCc1c(O)n(-c2ccccc2)c(SCCN(C)C)nc1=O
AC50 (Cytochrome P450 2C19): 6.31 µM (inconclusive) | IC50 [4]: > 66 µM (inactive) | IC50 [5]: > 66 µM (inactive)

O=C(CCc1nc(O)c2ccccc2n1)OCC(=O)c1cccc(Cl)c1
AC50 (Escherichia coli): 41.4 µM (active)

CCOC(=O)c1nn(-c2ccc(F)cc2)c(=O)cc1OCC(=O)Nc1ccc(OCC)cc1
IC50 [12]: > 99 µM (inactive)

COc1ccc(S(=O)(=O)CC(=O)c2cc3cccc(C)c3oc2=O)cc1
IC50 (Genome polyprotein): 78.1 µM (active)

CC(C)(CNC(=O)c1ccc(Cl)c(S(=O)(=O)N2CCc3ccccc3C2)c1)N1CCOCC1
AC50 [1]: 2.14 µM (active) | AC50 [3]: 10.5 µM (active)

O=C(CCSc1nnc(-c2ccco2)o1)N1CCOCC1
AC50 (Escherichia coli): 119 µM (active)

COc1ccc(CC(N)c2csc(NC(=O)Nc3ccc(C(C)C)cc3)n2)cc1 (stereo not drawn)
AC50 [1]: 10.9 µM (active) | AC50 [2]: 11.9 µM (active) | AC50 [3]: 5.16 µM (active)

Cc1[nH]n(-c2ccccc2)c(=O)c1C(c1cccc([N+](=O)[O-])c1)c1c(C)[nH]n(-c2ccccc2)c1=O
AC50 [9]: 3.28 µM (active) | IC50 (Genome polyprotein): 52.9 µM (active) | EC50 (Protein RecA): 0.805 µM (active)
